Measured values: US20150202192A1, “PHARMACEUTICAL COMPOSITION FOR TREATING GASTRO-OESOPHAGEAL REFLUX DISEASE” (priority 2012, published 2015)

Legend:
[1] = Clinical study in GERD patients: hydrogen breathing test for bacterial overgrowth syndrome; type: in vivo, human; conditions: n = 10
Description: (§1) The study included 100 patients with endoscopically negative GERD form, i.e. men and women aged 19 to 50 years old infected with H. pilori.
(§2) All the patients received treatment on a similar pattern: they received the composition of a proton pump inhibitor and a prebiotic 2 times a day for 56 days.
Before and after treatment course (on Day 56) all the patients were subjected to hydrogen breathing test on the presence of bacterial overgrowth syndrome.

Helicobacter pylori = assay: Clinical study in GERD patients: biopsy of antrum and gastric corpus for Helicobacter pylori (cytology/histology, urease test); type: in vivo, human; conditions: n = 10
Description: as §1, §2
In all patients, before treatment and in 4 weeks (1 month) after completion of the treatment course the biopsy of the antrum and gastric corpus was made for the presence of Helicobacter pylori. For HP diagnostics the following was used:
1. Cytological and histological biopsy of mucosa of the antrum and gastric corpus obtained in gastroscopy.
2. Urease test, in which the mucous membrane biopsy material obtained from the antrum and the gastric corpus were examined for the presence of urease, an enzyme specific for Helicobacter pylori.
(§3) Repeated visits were made in 2 and 5 weeks after the treatment start; during the visits treatment efficacy and safety were determined, besides, it was determined if the therapy could be continued. In 56 days (8 weeks) after the therapy start, the patient came to a visit, wherein efficacy and safety of treatment was evaluated and the treatment was terminated. In 11 weeks after the treatment start, the final visit was made which included esophagogastroduodenoscopy with byopsy of the antrum and the gastric corpus for HP detection.

[2] = Clinical study in GERD patients: tolerability (diarrhea, flatulence, AE necessitating discontinuation); type: in vivo, human; conditions: n = 10
Description: as §1
All the patients were divided into 10 groups of 10 persons each, of whom 5 groups (I-V) were experimental ones, while 5 groups (VI-X) were control ones.
In the experimental groups patients received orally the claimed dosage forms based on PPI and a prebiotic; Group I—a composition which contained omeprazole and lactulose as active components; Group II—a composition which contained pantoprazole and lactitol as active components; Group III—a composition which contained lansoprazole and inulin as active components; Group IV—a composition which contained rabeprazole and fructooligosaccharides as active components; Group V—a composition which contained esomeprazole and lactulose as active components.
In the control groups the patients received PPI monotherapy orally: Group VI—omeprazole; Group VII—pantoprazole; Group VIII—lansoprazole; Group IX—rabeprazole and Group X—esomeprazole.
as §2
The patients kept their diaries in which they made daily records of the time when they took drugs, recorded disease symptom severity according to Likert scale, severity of meteorism, defecation frequency, etc.
as §3

[3] = Clinical study in GERD patients: quality of life by Visual Analog Scale; type: in vivo, human; conditions: n = 10
[4] = Clinical study in GERD patients: symptom severity (pyrosis, regurgitation) on Likert scale; type: in vivo, human; conditions: n = 10; for medium term arresting pyrosis / medium term arresting regurgitation: oral, 2 times a day for 56 days
intestinal bacteria = conditions: humans, 3 g daily dose; cited from earlier work
[5] = after treatment, biopsy after completion of the 56-day course
[6] = after treatment (oral, 2 times a day for 56 days)

Row | Structure (SMILES) | Presence bacterial overgrowth syndrome ([1]; after treatment (Day 56)) | Presence bacterial overgrowth syndrome ([1]; before treatment) | release Helicobacter pylori in the antrum (Helicobacter pylori; [5]) | release Helicobacter pylori in the stomach (Helicobacter pylori; [5]) | release Helicobacter pylori in the antrum (Helicobacter pylori; before treatment) | release Helicobacter pylori in the stomach (Helicobacter pylori; before treatment) | AE, necessitating discontinuation of therapy ([2]; after treatment (56 days)) | Presence diarrhea ([2]; after treatment (56 days)) | Presence flatulence ([2]; after treatment (56 days)) | Presence diarrhea ([2]; before treatment) | Presence flatulence ([2]; before treatment) | Quality of life no VAC ([3]; after treatment (56 days)) | Quality of life no VAC ([3]; before treatment) | Intensity pyrosis on scale Likert [4, 6] | Intensity regurgitation on scale Likert [4, 6] | Intensity pyrosis on scale Likert ([4]; before treatment) | Intensity regurgitation on scale Likert ([4]; before treatment) | medium term arresting pyrosis [4] | medium term arresting regurgitation [4] | other results
1 | COc1ccc2nc([S@@+]([O-])Cc3ncc(C)c(OC)c3C)[nH]c2c1 [group X, esomeprazole] | 50% | 10% | 100% | 80% | 100% | 20% | 0% | 20% | 60% | 0% | 10% | 87.6 ± 21.2 MM | 58.1 ± 18.9 MM | 1.1 ± 0.2 ball | 1.3 ± 0.1 ball | 3.5 ± 0.9 ball | 3.6 ± 1.1 ball | 7.7 ± 3.1 days | 7.2 ± 3.1 days | –
2 | Cc1c(OCC(F)(F)F)ccnc1C[S+]([O-])c1nc2ccccc2[nH]1 (stereo not shown) [group VIII, lansoprazole] | 50% | 10% | 100% | 70% | 100% | 20% | 0% | 20% | 60% | 0% | 10% | 84.2 ± 21.5 MM | 57.4 ± 17.5 MM | 1.1 ± 0.5 ball | 1.1 ± 0.2 ball | 3.4 ± 0.7 ball | 3.6 ± 1.1 ball | 7.8 ± 3.3 days | 7.7 ± 3.2 days | –
3 | COCCCOc1ccnc(C[S+]([O-])c2nc3ccccc3[nH]2)c1C (stereo not shown) [group IX, rabeprazole] | 40% | 10% | 100% | 80% | 100% | 20% | 0% | 20% | 50% | 0% | 20% | 87.3 ± 19.5 MM | 58.5 ± 20.2 MM | 1.2 ± 0.6 ball | 1.1 ± 0.3 ball | 3.6 ± 0.7 ball | 3.5 ± 1.1 ball | 7.8 ± 3.5 days | 7.5 ± 3.4 days | –
4 | OC[C@H]1O[C@@H](O[C@@H]2[C@@H](CO)OC(O)(CO)[C@H]2O)[C@H](O)[C@@H](O)[C@H]1O (mixture of isomers) [lactulose] | – | – | – | – | – | – | – | – | – | – | – | – | – | – | – | – | – | – | – | number of Bifidobacteria and Lactobacillus (intestinal bacteria): significant increase; number of Clostridium perfringens, Bacteroides, Enterobacteriaceae, and Streptococcus (intestinal bacteria): decrease
5 | COc1ccc2[nH]c([S+]([O-])Cc3ncc(C)c(OC)c3C)nc2c1 (stereo not shown) [group VI, omeprazole] | 50% | 10% | 100% | 70% | 100% | 20% | 0% | 20% | 60% | 0% | 20% | 87.6 ± 21.2 MM | 58.1 ± 18.9 MM | 1.2 ± 0.6 ball | 1.1 ± 0.3 ball | 3.6 ± 0.8 ball | 3.5 ± 1.2 ball | 7.8 ± 3.5 days | 7.5 ± 3.4 days | –
6 | COc1ccnc(C[S+]([O-])c2nc3ccc(OC(F)F)cc3[nH]2)c1OC (stereo not shown) [group VII, pantoprazole] | 40% | 10% | 100% | 80% | 100% | 20% | 0% | 20% | 50% | 0% | 10% | 87.6 ± 21.2 MM | 58.1 ± 18.9 MM | 1.0 ± 0.4 ball | 1.2 ± 0.3 ball | 3.3 ± 0.5 ball | 3.4 ± 1.1 ball | 7.5 ± 3.1 days | 7.6 ± 3.4 days | –
